# Measurements reported in publication PMC9785397, “Exploiting Conserved Quorum Sensing Signals in Streptococcus mutans and Streptococcus pneumoniae” (Microorganisms, 2022).
# Legend:
# [1] = system: S. mutans bacteriocin production against S. sanguinis; assay: Bacteriocin overlay assay, S. mutans spotted on S. sanguinis; format: cell-based, Streptococcus mutans; conditions: CSP1 20 μM alone vs vehicle, 16 h, 37 °C, microaerophilic
# Procedure: (§1) During the formation of complex biofilm such as dental plaque, the ability of S. mutans to compete with other commensal species determines the success of the cariogenesis process. S. mutans uses antibacterial peptides, namely, bacteriocins, to overcome and subvert the composition of dental microbiota. We investigated the production of bacteriocins using the overlay assay. Overnight cultures of S. mitis, S. oralis, S. sanguinis, P. aeruginosa, F. nucleatum, or P. gingivalis were diluted 1:100 in BHI or TS broth and incubated at 37 °C until they reached an OD620 of 0.3. Cultures were added with agar (BD Difco^TM Agar) at the final concentration of 1.5% w/v and transferred in plates. Overnight cultures of S. mutans were diluted 1:100 in BHI and added with peptides (20 μM) or the vehicle with or without CSP1. Culture media were supplemented with agar to reach the final concentration of 0.7% w/v. The solutions were spotted on the surface of agar plates prepared as described above. The plates were kept on the benchtop for 30 min, allowing the agar containing S. mutans to solidify, and then incubated at 37 °C for 16 h under microaerophilic or anaerobic conditions, as required.
# (§2) Spots (10 for each experimental group) were acquired and analyzed using NIH Image J software (version 1.53t August 2022, https://imagej.nih.gov/ij/index.html; accessed on 7 September 2022). The appearance of a clear area on the plate (bacterial growth inhibition) was evaluated as indicative of bacteriocin activity. The diameters of the area were measured in a blinded fashion.
# [2] = system: bip gene; assay: qRT-PCR, bip gene expression; format: cell-based, Streptococcus mutans; conditions: CSP1 20 μM vs vehicle, 2–24 h, maximum at 8 h, qPCR
# Procedure: S. mutans was cultured in BHI supplemented with peptides or the vehicle. Cultures were centrifuged, and total RNA was isolated and purified from the bacterial pellets using the GRS Total RNA Kit—Bacteria (GK16.0100; GRISP Research Solution, Porto, Portugal), following the manufacturer’s instructions. Purified RNA was subjected to DNase I treatment to remove contaminating DNA. The RNA yield and purity were assessed by measuring the absorbance, and only samples with a ratio of 260/280 nm in the 1.8–2 range were used. cDNA was generated using the cDNA RT kit with an RNAse inhibitor (Applied Biosystems; Monza, Milan). Quantitative PCR (qRT-PCR) was performed using SYBR green mixture (iScript One Step RT-PCR kit; Bio-Rad, Segrate, Milan) to determine the transcript levels of genes using the oligonucleotides listed in Table 3. The gyrA gene served as the housekeeping gene.
# [3] = system: P. aeruginosa; assay: microbe, parasite or virus in culture; format: cell-based, Pseudomonas aeruginosa; conditions: peptides 0–50 μM, 16 h, 37 °C, aerobic, A620 nm, three separate experiments
# Description: Streptococcus mutans Clarke (strain designation NCTC 10449), Pseudomonas aeruginosa (Schroeter) Migula (strain designation PAO1), Fusobacterium nucleatum, subspecies nucleatum (strain VPI 4355), and Porphyromonas gingivalis (strain 2561) were purchased from ATCC (LGC Standards Srl, Milan, Italy). Streptococcus mitis, Streptococcus oralis, and Streptococcus sanguinis were obtained from clinical isolates and characterized by morphological, biochemical, and molecular typing. S. mutans, S. mitis, S. oralis, and S. sanguinis were maintained in Brain Heart Infusion (BHI) broth or agar under microaerophilic conditions. P. aeruginosa was maintained in trypticase soy (TS) agar or broth. F. nucleatum was maintained in TS agar or broth with defibrinated sheep blood under anaerobic conditions. P. gingivalis was maintained in ATCC Medium 2722 supplemented with TS broth or agar under anaerobic conditions. Before the experiments, bacterial cultures were inoculated in fresh media (dilution 1:100) and grown for 16 h at 37 °C.
# The antimicrobial activities of the tested peptides were assessed through the determination of the minimum inhibitory concentration (MIC) standardized by the Clinical and Laboratory Standards Institute. Bacterial inocula were diluted in 10 mL of MHB […]. The concentration of the bacteria was adjusted to 0.5 McFarland standard, and the bacteria were dispensed in 96-well microtiter plates (final bacterial concentration: 1 × 10^4 CFU/well). Peptides were dissolved in sterile water (stock concentration: 2 mM) and added at final concentrations ranging from 0 to 50 µM. Plates were incubated at 37 °C for 16 h. At the end of incubation, bacterial growth was recorded using a microplate reader (Varioskan Lux Reader; Thermo Fisher Scientific, Milan, Italy) by quantifying the adsorption at 620 nm. Cultures were then opportunely diluted and seeded on agar plates. Bacterial cultures inoculated with the highest final concentration of the vehicle (sterile water) or chlorhexidine hydrochloride salt (CHX, concentration range: 0.05 to 500 μg/mL; Merck, Milan, Italy) were included as controls in each test. Experiments were performed in triplicate.
# [4] = system: S. mutans bacteriocin production against F. nucleatum; assay: Bacteriocin overlay assay, S. mutans spotted on F. nucleatum; format: cell-based, Streptococcus mutans; conditions: CSP1 20 μM, 16 h, 37 °C, anaerobic
# Procedure: as §1, with “The plates were kept on the benchtop for 30 min, allowing the agar containing S. mutans to solidify, and then incubated at 37 °C for 16 h under microaerophilic or anaerobic conditions, as required.” left out
# as §2
# [5] = system: S. mutans biofilm formation; assay: Biofilm formation (crystal violet); format: cell-based, Streptococcus mutans; conditions: peptide 20 μM, 72 h, p < 0.05
# Procedure: Overnight cultures of S. mutans were diluted 1:1000 in a 1:10 solution of BHI broth supplemented with 0.2% w/v sucrose and artificial saliva (AS; 1.3 g/L KCl, 0.1 g/L NaCl, 0.05 g/L MgCl, 0.1 g/L CaCl2, 0.5 g/L peptone, 25 μg/L NaF, 27 mg/L KH2PO4, 35 mg/L K2HPO4, pH 6.8; all reagents purchased from Merck). Cultures were seeded into 96-well polystyrene microtiter plates (200 µL/well) and incubated at 37 °C under static conditions. To identify the time of incubation that is useful in obtaining a mature biofilm, plates were incubated for 16, 24, 48, 72, or 96 h. Half of the media was renewed every 24 h. At the end of incubations, the wells were emptied and washed three times with sterile PBS to remove planktonic cells. Adhering cells were incubated with resazurin 0.01% in the dark at 37 °C for 20 min [30]. In metabolically active cells, the non-fluorescent resazurin was reduced to highly fluorescent resorufin by dehydrogenase enzymes. The relative fluorescence units (RFU) of resorufin were measured using a fluorimeter (Ex = 530–570 nm, Em = 590–620 nm; Varioskan Lux Reader; Thermo Fisher Scientific).
# To assess the effect of the compounds on biofilm formation or mature biofilm, cultures of S. mutans were prepared as described above. […] The optical density was measured at 570 nm using a microplate reader (Varioskan Lux Reader; Thermo Fisher Scientific). […]
smiles,measurement,setting,value
CC[C@H](C)[C@H](NC(=O)[C@H](Cc1ccccc1)NC(=O)[C@H](CC(=O)O)NC(=O)[C@H](CCCNC(=N)N)NC(=O)[C@H](Cc1ccccc1)NC(=O)[C@H](Cc1ccccc1)NC(=O)[C@H](CCCCN)NC(=O)[C@H](CO)NC(=O)[C@H](CC(C)C)NC(=O)[C@H](CCCNC(=N)N)NC(=O)[C@H](CCSC)NC(=O)[C@@H](N)CCC(=O)O)C(=O)N[C@@H](CC(C)C)C(=O)N[C@@H](CCC(N)=O)C(=O)N[C@@H](CCCNC(=N)N)C(=O)N[C@@H](CCCCN)C(=O)N[C@@H](CCCCN)C(=O)O [CSP1],Growth inhibition of co-cultured S. sanguinis by S. mutans stimulated with peptide (diameter of clear area),[1],significantly inhibited the growth
same,Expression of bip in S. mutans,[2],induced the expression
same,"Minimum inhibitory concentration (MIC), P. aeruginosa",[3],>50 µM
same,Growth inhibition of F. nucleatum by S. mutans stimulated with peptide,[4],inhibited the growth
same,Effect on biofilm production vs. vehicle,[5],significantly increased
